The values below come from patent EP4813985A1, “PREPARATION OF QUINAZOLINONE DERIVATIVE AS KINASE INHIBITOR, AND USE THEREOF” (Xizang Haisco Pharmaceutical Co., Ltd., priority 2023, dated 2025).

Read-outs that look alike come from different tables or passages of the source.

For one series, the system named is A375 cells. The series can be described thus: A375 cell proliferation inhibition test. Type of series: cell-based. The following applies: Homo sapiens, A-375, 72 h. The method, then:
A375 cells (ATCC, CRL-1619) were cultured in DMEM complete medium (+10% FBS) in a CO2 incubator at 37°C for 48 h. The cells were trypsinised and counted, and then the density was adjusted to 1.67 × 10^4 cells/mL. 90 µL (1500 cells) of cells were inoculated into each well of a 96-well transparent bottom plate, and the plate was transferred to a CO2 incubator and the cells were cultured at 37°C overnight. After the cells were incubated overnight, 10 µL of the diluted compound (final concentration starting from 10 µM, 3-fold dilution, 11 concentrations) was added to each well using a multi-channel pipette. The […] control was a serum-free medium containing DMSO. After mixing evenly, the cells were placed in a CO2 incubator at 37°C for 72 h. After the incubation, the CellCounting-Lite®2.0 kit detection solution (Vazyme, DD1101-03) was taken out and returned to room temperature. 100 µL of CellCounting-Lite2.0 detection solution was added to each well, the plate was sealed with a sealing film, and the plate was placed on a shaker for shaking for 15 min (the whole process should be kept away from light). The Luminescence module of the microplate reader (BMG LRBTECH) was used to detect the fluorescence signal value LUM of each well. The formula Inhibition rate% = ((LUM Solvent−LUM Compound)/(LUM Solvent))∗100% [formula] was used to calculate the inhibition rate of the compound. The Graphpad software log(inhibitor) vs. response -- Variable slope (four parameters) equation was used to perform fitting analysis and calculate the IC50value of the sample. The ordinate of the data is the percentage of inhibition rate, and the abscissa is the logarithm of the sample concentration (Log10).

Series [1] in a line: Pharmacokinetic test in mice. Type of series: in vivo, ICR mice. The following applies: mouse, plasma; for Vd: read-out: Vdss. The method, then: 3.1 Experimental animals: Male ICR mice, 20-25 g, 6 mice/compound, purchased from Chengdu Dossy Experimental Animals Co., Ltd.
3.2 Experimental design: On the day of the experiment, the ICR mice were randomly grouped according to their body weights. The animals were fasted with water available for 12-14 h one day before the administration, and were fed 4 h after the administration. Table 3.1 Administration information
vehicle for intravenous administration: 5% DMA + 5% Solutol + 90% Saline; vehicle for intragastric administration: 0.5% MC
Before and after administration, 0.06 mL of blood was taken from the orbit under isoflurane anaesthesia and placed in an EDTAK2 centrifuge tube. The tube was centrifuged at 5000 rpm at 4°C for 10 min, and plasma was collected. The blood sampling time points for both the intravenous administration group and intragastric administration group were 0 min, 5 min, 15 min, 30 min, 1 h, 2 h, 4 h, 7 h, 24 h, and 48 h. Before analysis and detection, all samples were stored at -80°C, and the samples were quantitatively analysed by LC-MS/MS. Table 3.2 Pharmacokinetic parameters of test compounds in plasma of mice

Series [2] in a line: Pharmacokinetic test in mice. Type of series: in vivo, ICR mice. The following applies: i.g. (10 mg/kg), relative to Control compound 1.
The next series addresses T1, BRAFV600E (Homo sapiens, UniProt P15056, V600E).
T1 construct: purchased ABCAM ab204154
As to the kind of experiment: BRAFV600E enzyme activity test (ADP-Glo, MEK1K97R substrate). The class given is biochemical. The following applies: Inhibitory activities of compounds on BRAFV600E. How it is done:
BRAFV600E (ABCAM, ab204154) and MEK1K97R (USBio, M2865-06J) proteins were diluted at an appropriate dilution factor using 1×Assay buffer (PH = 7.4 Tris-HCl buffer, supplemented with 10 mM MgCl2) such that the final concentration of BRAFV600E was 10 ng/µL and the final concentration of substrate MEK1K97R was 1 µM. 1 µL of BRAFV600E, 1 µL of compound serial dilution (final concentration starting from 2 µM, 5-fold dilution, 8 concentrations), and 6 µL of Assay buffer were pipetted to a 384-well reaction plate with a capacity of 20 µL. The plate was pre-incubated in a constant temperature incubator at 37°C for 30 min. 1 µL of 200 µM ATP and 1 µM MEK1 K97R were added to the reaction wells corresponding to the compound incubation, and mixed evenly by shaking, and preincubation was performed in a constant temperature incubator at 37°C for 60 min for enzymatic reaction. After the reaction was completed, 5 µL of the above reaction product was pipetted to another 384-well plate, and 5 µL of formulated ADP-Glo™ Reagent (Promega, V9101) was added and mixed evenly by pipetting, and then the plate was placed at room temperature for 40 min. 10 µL Kinase Detection Reagent was added to the 384-well plate and incubated at room temperature for 40 min. Finally, a microplate reader (BMG LRBTECH) was used and Luminescence module was selected to detect the LUM fluorescence value of each well (the gain value was fixed at 3600), and the formula Inhibition rate% = (1−(LUM Compound−LUM Background)/(LUM Solvent−LUM Background))∗100% [formula] was used to calculate the inhibition rate of the compound on BRAFV600E. The Graphpad software log(inhibitor) vs. response -- Variable slope (four parameters) equation was used to perform fitting analysis and calculate the IC50value of the sample.
In general terms: ADP-Glo first removes unused ATP, then detects ADP through luciferase.

Setting [3] is: Inhibitory activities of compounds on A375 cells, read-out: IC50/nM.
Where [4] appears, read: A375 cells, values in text, read-out: IC50.

T1 sequence (P15056 416-766 V600E limits assumed): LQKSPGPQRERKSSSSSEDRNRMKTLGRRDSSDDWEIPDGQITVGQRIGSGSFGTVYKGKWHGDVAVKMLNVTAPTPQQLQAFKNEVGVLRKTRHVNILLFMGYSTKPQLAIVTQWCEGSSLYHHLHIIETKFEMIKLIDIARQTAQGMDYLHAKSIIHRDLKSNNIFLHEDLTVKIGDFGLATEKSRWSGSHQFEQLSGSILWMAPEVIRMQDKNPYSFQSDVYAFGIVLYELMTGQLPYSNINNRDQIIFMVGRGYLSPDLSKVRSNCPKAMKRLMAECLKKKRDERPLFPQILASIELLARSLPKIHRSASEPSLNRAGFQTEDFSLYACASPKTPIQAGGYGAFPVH

As for `N#Cc1c(NS(=O)(=O)N2CCC(=CF)C2)ccc(F)c1Oc1ccc2ncn(CC(F)F)c(=O)c2c1` (single isomer, unassigned) [Compound 15], the IC50 in the series with A375 cells (setting [3]) is at most 10 nM.

As to `Cc1nnc2c3cc(Oc4c(F)ccc(NS(=O)(=O)N5CC6(CCC6)C5)c4C#N)ccc3ncn12` [Compound 1], the IC50 in the series on A375 cells (setting [3]) is at most 10 nM.

Consider `N#Cc1c(NS(=O)(=O)N2CC3(CCC3)C2)ccc(F)c1Oc1ccc2ncc(N3CCOCC3)nc2c1` [Compound 2], for which the IC50 in the series on A375 cells (setting [3]) lay within 10 to 50 nM.

Take `CC(C)=C1CN(S(=O)(=O)Nc2ccc(F)c(Oc3ccc4ncn(CC(F)F)c(=O)c4c3)c2C#N)C1` [Compound 4]: in the series with A375 cells (setting [3]), the IC50 was 10 to 50 nM.

As to `C=C1CN(S(=O)(=O)Nc2ccc(F)c(Oc3ccc4ncn(CCF)c(=O)c4c3)c2C#N)C1` [Compound 5], the IC50 with A375 cells (setting [3]) was at most 10 nM.

The term AUC(0-t) denotes the area under the concentration-time curve up to a stated or last time point. The low end stands for less exposure, the high end for more exposure. The clearance is a measure of how efficiently the substance is removed, as volume per time. The half-life is the time in which the quantity being followed falls by half. Low values mean rapid decline, high ones slow decline. Turning to `C=C1CCN(S(=O)(=O)Nc2ccc(F)c(Oc3ccc4ncn(CC(F)F)c(=O)c4c3)c2C#N)C1` [Compound 6], the IC50 with A375 cells (setting [3]) is at most 10 nM. Also, in series [1] (in vivo, iv, i.v. (2.5 mg/kg)), the AUC(0-t) came to 148 µg·h/mL, the clearance is 0.282 mL/min/kg, the half-life was 6.77 h and the Vd came to 0.118 L/kg. In series [1] (in vivo, po, i.g. (10 mg/kg)), this molecule had an AUC(0-t) of 373 µg·h/mL and a half-life of 4.47 h. Further, in series [2], the “Fold change in brain-blood ratio relative to control compound” value is 24.9.

`C=C1CC(Cn2cnc3ccc(Oc4c(F)ccc(NS(=O)(=O)N5CC6(CCC6)C5)c4C#N)cc3c2=O)C1` [Compound 9]: the IC50 in the series on A375 cells (setting [3]) lay within 10 to 50 nM.

The term bioavailability denotes dose-corrected exposure relative to a reference, in per cent. A high value points to good availability. For `N#Cc1c(NS(=O)(=O)N2CC(=CF)C2)ccc(F)c1Oc1ccc2ncn(CC(F)F)c(=O)c2c1` [Compound 11], the IC50 in the series with A375 cells (setting [3]) is at most 10 nM. Besides, in series [1] (iv, i.v. (2.5 mg/kg)), the exposure AUC(0-t) is 245 µg·h/mL, the clearance amounted to 0.163 mL/min/kg, the half-life is 11.1 h and the Vd turned out to be 0.123 L/kg. Also, in series [1] (po, i.g. (10 mg/kg)), the bioavailability stood at 98.1%, the area under the curve AUC(0-t) is 962 µg·h/mL and the half-life is 8.81 h. In series [2], the “Fold change in brain-blood ratio relative to control compound” value is recorded as 6.1.

`CN(C1CC(=C(F)F)C1)S(=O)(=O)Nc1ccc(F)c(Oc2ccc3ncn(CC(F)F)c(=O)c3c2)c1C#N` (stereo not shown) [Compound 12]: the IC50 in the series on A375 cells (setting [3]) was 10 to 50 nM.

On BRAFV600E, `CC=C1CN(S(=O)(=O)Nc2ccc(F)c(Oc3ccc4ncn(CCF)c(=O)c4c3)c2C#N)C1` [Compound 14] returned an IC50 of at most 10 nM. In addition, in the series on A375 cells (setting [4]), the IC50 was determined as 1.44 nM. In the series with A375 cells (setting [3]), the IC50 was at most 10 nM. For the same molecule, in series [1] (iv, i.v. (2.5 mg/kg)), the AUC(0-t) turned out to be 268 µg·h/mL, the clearance turned out to be 0.154 mL/min/kg, the half-life was 9.27 h and the Vd was 0.098 L/kg. Also, in series [1] (po, i.g. (10 mg/kg)), the bioavailability was 85.1%, the exposure AUC(0-t) is 912 µg·h/mL and the half-life is 9 h. Moreover, the “Fold change in brain-blood ratio relative to control compound” value in series [2] is 3.5.

As to `C=C1CN(S(=O)(=O)Nc2ccc(F)c(Oc3ccc4ncn(CC(F)F)c(=O)c4c3)c2C#N)CC1F` (stereo not shown) [Compound 21], the IC50 with A375 cells (setting [3]) is at most 10 nM.

Take `CC=C1CN(S(=O)(=O)Nc2ccc(F)c(Oc3ccc4c(c3)C3=NCCN3C=N4)c2C#N)C1` [Compound 22]: the IC50 with A375 cells (setting [3]) was in the range of 10 to 50 nM.

For `C=C1CN(S(=O)(=O)Nc2ccc(F)c(Oc3ccc4ncc(N5CCOCC5)nc4c3)c2C#N)C1` [Compound 23], the IC50 in the series on A375 cells (setting [3]) was at most 10 nM.

At BRAFV600E, `CC(F)=C1CN(S(=O)(=O)Nc2ccc(F)c(Oc3ccc4ncn(CC(F)F)c(=O)c4c3)c2C#N)C1` [Compound 24] returned an IC50 of at most 10 nM. In addition, the IC50 in the series with A375 cells (setting [4]) amounted to 2.16 nM. Besides, in the series on A375 cells (setting [3]), the IC50 is at most 10 nM. For the same molecule, in series [1] (iv, i.v. (2.5 mg/kg)), the area under the curve AUC(0-t) is 91.8 µg·h/mL, the clearance stood at 0.462 mL/min/kg, the half-life is 8.1 h and the Vd came to 0.237 L/kg. In series [1] (po, i.g. (10 mg/kg)), this molecule had a bioavailability above 98%, an exposure AUC(0-t) of 492 µg·h/mL and a half-life of 9.83 h. Moreover, the “Fold change in brain-blood ratio relative to control compound” value in series [2] is given as 8.1.

Regarding `N#Cc1c(NS(=O)(=O)N2CC(=CC(F)(F)F)C2)ccc(F)c1Oc1ccc2ncn(CC(F)F)c(=O)c2c1` [Compound 25], in the series with A375 cells (setting [3]), the IC50 lay in the range of 10 to 50 nM.

On to `N#Cc1c(NS(=O)(=O)N2CC(=CC(F)F)C2)ccc(F)c1Oc1ccc2ncn(CC(F)F)c(=O)c2c1` [Compound 26], for which the IC50 in the series with A375 cells (setting [3]) lay in the range of 10 to 50 nM.

`CC=C1CN(S(=O)(=O)Nc2ccc(F)c(Oc3ccc4ncn(C)c(=O)c4c3)c2C#N)C1` [Compound 27]: the IC50 with A375 cells (setting [3]) was at most 10 nM.
